# Literature values as cited in patent US9687554B2, “Finasteride and minoxidil polymeric nanoparticle its process of preparation, aqueous suspension containing the same, pharmaceutical composition, and its use” (Biolab Sanus Farmaceutica Ltda., priority 2012, dated 2017).
# Tested on: men aged 18 to 41 years
# Details: 1 mg daily, end of five years, 1553 men; placebo 75%
smiles,measurement,value
CC(C)(C)NC(=O)[C@H]1CC[C@H]2[C@@H]3CC[C@H]4NC(=O)C=C[C@]4(C)[C@H]3CC[C@]12C [finasteride],Patients who developed baldness,10%
